Measurements reported in article PMC4700930 (Nature, 2015).
Read-outs that look alike come from different tables or passages of the source. Numbered stars: 1 amine (or outer) side, 2 acyl side, 3 side chain; on linkers, the order of the positions; unused ones are H or OH. Bridge positions count the residues as written; N and C are the ends. Square brackets hold non-standard residues; d marks the D form. Peptide text beside a SMILES is read from it. I, II: the chains in the order shown. Actinocin(9to1) = Cc1c2oc3c(C)ccc(C(=O)[*:1])c3nc-2c(C(=O)[*:2])c(N)c1=O; NMeV = CN[C@H](C(=O)O)C(C)C; Sar = CNCC(=O)O

Experiments:
[1] = tested on: GFP-transfected P. berghei ANKA strain; conditions: for Activity % / Survival days: oral single dose
[2] = tested on: P. berghei liver stages; assay: Plasmodium berghei luciferase liver stage assay
[3] = tested on: liver schizont forms of P. yoelii; assay: P. yoelii liver stage assay; format: cell-based; conditions: Plasmodium yoelii, read-out: EC50, P. yoelii liver stage, liver schizont forms
[4] = tested on: P. vivax clinical isolates; assay: Ex vivo P. vivax field isolates assay; format: cell-based, Plasmodium vivax; conditions: read-out: median EC50, P. vivax clinical isolates, isolates from Papua (Indonesia)
[5] = Mouse pharmacokinetics; format: in vivo; conditions: Intravenous 1 mg/kg
[6] = tested on: P. falciparum; assay: Parasite Reduction Ratio
[7] = tested on: P. falciparum strains K1, W2, 7G8, TM90C2A, D6, V1/S, NF54; assay: P. falciparum; format: cell-based, Plasmodium falciparum; conditions: compared with 3D7
[8] = tested on: Plasmodium falciparum strain 3D7; assay: P. falciparum; format: cell-based
[9] = tested on: P. falciparum clinical isolates; assay: Ex vivo P. falciparum field isolates assay; format: cell-based; conditions: Plasmodium falciparum
[10] = tested on: DNA/RNA synthesis in P. falciparum 3D7; assay: Metabolic labelling with [3H]-hypoxanthine; format: cell-based, Plasmodium falciparum; conditions: sensitive and drug-resistant parasites
[11] = tested on: P. berghei ookinetes; assay: P. berghei ookinete development assay; conditions: Plasmodium berghei, read-out: EC50, P. berghei ookinete
[12] = tested on: P. falciparum Pf3D7^0087/N9; format: in vivo, Plasmodium falciparum
[13] = tested on: luciferase-expressing P. berghei sporozoites; conditions: blood sampling from the mice
[14] = Rat pharmacokinetics; format: in vivo
[15] = Mutagenicity
[16] = Dog pharmacokinetics; format: in vivo; conditions: Intravenous 1 mg/kg
[17] = tested on: DDD107498-resistant P. falciparum lines; assay: SYBR Green growth assay on DDD107498-selected resistant lines; format: cell-based; conditions: Plasmodium falciparum
[18] = tested on: P. falciparum NF54; assay: Stage specificity studies in P. falciparum, synchronised cultures; format: cell-based, Plasmodium falciparum; conditions: 4nM for 24 h
[19] = Plasma protein binding, equilibrium dialysis; format: in vitro ADME, mouse, rat, human
[20] = tested on: P. berghei (PbGFPCON507); format: in vivo, Plasmodium berghei
[21] = tested on: MRC5 (human foetal lung fibroblasts); assay: Cytotoxicity against mammalian cells, resazurin assay, MRC5; format: cell-based
[22] = 30 mg/kg, murine P. berghei model
[23] = male, Sprague Dawley, rat, blood, po, 5 mg/kg

Q: Which Activity % ([1]; 3 mg/kg) does the source give for `OC(c1cc(C(F)(F)F)nc2c(C(F)(F)F)cccc12)C1CCCCN1` (stereo not drawn) [Mefloquine] here?
A: <40%

Q: And the Survival days ([1]; 3 mg/kg)?
A: 7 days

Q: And the Activity % ([1]; 10 mg/kg)?
A: 95%

Q: What about the Survival days ([1]; 10 mg/kg) of the same compound?
A: 16 days

Q: And the Survival days ([1]; 30 mg/kg)?
A: 22 days

Q: Which EC50 ([2]; read-out: EC50, P. berghei liver stage, continuous treatment) does the source give for `O=C1C(O)=C([C@H]2CC[C@H](c3ccc(Cl)cc3)CC2)C(=O)c2ccccc21` [Atovaquone, reference compound] here?
A: 0.3 nM

Q: For `O=C(NCCN1CCCC1)c1cc(-c2ccc(CN3CCOCC3)cc2)nc2ccc(F)cc12` [DDD107498], which EC50 [3] is on record?
A: ~1 nM

Q: What about the EC50 [4] of the same compound?
A: 0.51 nM

Q: And the CI [5]?
A: 12 mL/min/g

Q: What about the “lag before killing (effects reversible following wash-out)” value ([6]; 10 × EC50) of the same compound?
A: 24 to 48 h

Q: What about the “concentration sufficient to produce maximal killing effects” value ([6]; tested at 0.1, 0.3, 1, 3 and 10 × EC50) of the same compound?
A: ≥ 1 × EC50

Q: And the “activity against drug-resistant strains” value [7]?
A: almost equally active

Q: What about the “EC99 against 3D7 parasites” value ([8]; P. falciparum 3D7, n=39) of the same compound?
A: 5.9 nM

Q: And the EC50 ([8]; Plasmodium falciparum, 3D7, read-out: EC50 against 3D7 parasites)?
A: 1 nM

Q: What about the EC90 ([8]; Plasmodium falciparum, 3D7, read-out: EC90 against 3D7 parasites) of the same compound?
A: 2.4 nM

Q: What about the Activity % ([1]; 3 mg/kg) of the same compound?
A: 99%

Q: And the Survival days ([1]; 3 mg/kg)?
A: 9 days

Q: And the Activity % ([1]; 10 mg/kg)?
A: 99.0%

Q: And the Survival days ([1]; 10 mg/kg)?
A: 14 days

Q: And the Survival days ([1]; 30 mg/kg)?
A: 23 days

Q: And the Activity % [1, 22]?
A: 99.1%

Q: And the “ED90 (90% reduction in parasitaemia)” value ([1]; single oral dose, mice infected with P. berghei)?
A: 0.57 mg/kg

Q: What about the EC50 ([9]; read-out: Range of EC50, P. falciparum clinical isolates) of the same compound?
A: 0.29 to 3.29 nM

Q: And the EC50 ([9]; read-out: median EC50, P. falciparum clinical isolates)?
A: 0.81 nM

Q: What about the “effect on DNA/RNA biosynthesis ([3H]-hypoxanthine incorporation)” value (“effect on DNA/RNA biosynthesis” for short) [10] of the same compound?
A: minimal effects

Q: And the EC50 [11]?
A: 5 nM

Q: And the “minimum parasiticidal concentration (MPC)” value ([12]; asexual blood stage infections, blood of infected SCID mice)?
A: 10 to 13 ng/mL

Q: What about the “ED90 on day 7 after infection” value ([12]; dosed orally daily for 4 days, SCID mice, P. falciparum) of the same compound?
A: 0.95 mg/kg per day

Q: What about the “MPC, chemoprotection” value [13] of the same compound?
A: 15 to 20 ng/mL

Q: What about the CI ([14]; Rat, Intravenous 1 mg/kg) of the same compound?
A: 18 mL/min/g

Q: And the bioavailability [14, 23]?
A: 84%

Q: What about the half-life [14, 23] of the same compound?
A: 18 h

Q: What about the mutagenicity [15] of the same compound?
A: non-mutagenic

Q: What about the CI [16] of the same compound?
A: 30 mL/min/g

Q: And the IC50 ([17]; DD2, read-out: DDD107498 IC50, WT Dd2)?
A: 0.14 nM

Q: What about the IC50 ([17]; read-out: DDD107498 IC50, high-level resistant line EF2-L775F) of the same compound?
A: 660 nM

Q: And the IC50 ([17]; read-out: DDD107498 IC50, high-level resistant line EF2-Y186N)?
A: 3100 nM

Q: What about the IC50 ([17]; read-out: DDD107498 IC50, low-level resistant line EF2-E134D) of the same compound?
A: 5.8 nM

Q: And the EC50 ([2]; read-out: EC50, P. berghei liver stage, liver schizont forms)?
A: ~1 nM

Q: What about the “effect from the ring stage” value [18] of the same compound?
A: formation of abnormal trophozoites

Q: What about the “reduction in parasites, from the schizont stage” value [18] of the same compound?
A: 98%

Q: And the “reduction in parasites, from the trophozoite stage” value [18]?
A: 50%

Q: What about the protein binding [19] of the same compound?
A: low protein binding

Q: And the “TB effect- sporozoite intensity” value ([20]; 3 mg/kg oral)?
A: 93.8%

Q: What about the “TB effect- sporozoite prevalence” value ([20]; 3 mg/kg oral) of the same compound?
A: 88.6%

Q: And the “reduction in infected mosquitoes (TB effect- oocyst prevalence)” value ([20]; 3 mg/kg oral, day 10)?
A: 90.7%

Q: What about the “reduction in oocysts per midgut (TB effect- oocyst intensity)” value ([20]; 3 mg/kg oral, day 10) of the same compound?
A: 98.8%

Q: And the “Inhibition in infection of naïve mice” value ([20]; 3 mg/kg oral, multiple mosquito biting rates)?
A: 89.5%

Q: And the Effect size ([20]; chain binomial model, reduction of R0, 100% coverage)?
A: 90.5%

Q: What about the “selectivity, human cells (MRC5 and Hep-G2) over parasite” value [21] of the same compound?
A: > 20,000 fold

Q: Which Survival days ([1]; 3 mg/kg) does the source give for `CCN(CC)CCCC(C)Nc1ccnc2cc(Cl)ccc12` (stereo not drawn) [Chloroquine] here?
A: 7 days

Q: And the Survival days ([1]; 10 mg/kg)?
A: 7 days

Q: What about the Survival days ([1]; 30 mg/kg) of the same compound?
A: 10 days

Q: With `Cc1c2oc3c(C)ccc(C(=O)N[C@@H]4C(=O)N[C@H](C(C)C)C(=O)N5CCC[C@H]5C(=O)N(C)CC(=O)N(C)[C@@H](C(C)C)C(=O)O[C@@H]4C)c3nc-2c(C(=O)N[C@@H]2C(=O)N[C@H](C(C)C)C(=O)N3CCC[C@H]3C(=O)N(C)CC(=O)N(C)[C@@H](C(C)C)C(=O)O[C@@H]2C)c(N)c1=O` [actinomycin D] (I: T[dV]P[Sar][NMeV] / II: T[dV]P[Sar][NMeV]; ester I:1-I:C, II:1-II:C; linker I:N-II:N via Actinocin(9to1)) as the compound, how does the “effect on DNA/RNA biosynthesis” value [10] read?
A: significant dose-dependent reduction

Q: For `C[C@H]1[C@H](OC(=O)CCC(=O)O)O[C@@H]2O[C@@]3(C)CC[C@H]4[C@H](C)CC[C@@H]1[C@@]24OO3` [Artesunate], which Activity % ([1]; 3 mg/kg) is on record?
A: <40%

Q: What about the Survival days ([1]; 3 mg/kg) of the same compound?
A: 6 days

Q: What about the Activity % ([1]; 10 mg/kg) of the same compound?
A: 75%

Q: And the Survival days ([1]; 10 mg/kg)?
A: 6 days

Q: And the Survival days ([1]; 30 mg/kg)?
A: 9 days

Q: Which results are given for `C[C@H]1[C@@H](O)O[C@@H]2O[C@@]3(C)CC[C@H]4[C@H](C)CC[C@@H]1[C@@]24OO3` [Dihydroartemsinin]?
A: Activity % ([1]; 3 mg/kg): 61%; Survival days ([1]; 3 mg/kg): 7 days; Activity % ([1]; 10 mg/kg): 97%; Survival days ([1]; 10 mg/kg): 6 days; Survival days ([1]; 30 mg/kg): 7 days; Activity % [1, 22]: 99%

Q: For `C[C@@H]1C[C@@H]([C@H](O)CC2CC(=O)NC(=O)C2)C(=O)[C@@H](C)C1` [cycloheximide], which “effect on DNA/RNA biosynthesis” value [10] is on record?
A: minimal effects

Q: What does the source list for `CO[C@H]1O[C@@H]2O[C@@]3(C)CC[C@H]4[C@H](C)CC[C@@H]([C@H]1C)[C@@]24OO3` [Artemether]?
A: Activity % ([1]; 3 mg/kg): 59%; Survival days ([1]; 3 mg/kg): 6 days; Activity % ([1]; 10 mg/kg): 89%; Survival days ([1]; 10 mg/kg): 6 days; Survival days ([1]; 30 mg/kg): 7 days; Activity % [1, 22]: 98%
